d = 2'-deoxy (DNA)
Tests used:
Format in all cases: cell-based, human
[1] = tested on: RPE1 cells; assay: FACS of nocodazole shift with kinase inhibitors and siGCP3 (p38 dependence); details: FIG. 7
Procedure: (§1) For flow cytometry (i.e., fluorescence-activated cell sorter or FACS) experiments, siRNAs were delivered to cells as described above, and were incubated for 50-70 hours. To synchronize cells, nocodazole was added to the cells to a concentration of 5 μg/mL for 12 hours. Cells were stained with propidium iodide and analyzed by flow cytometry (FACSCAN; Becton Dickinson) using FLOJO® software (Tree Star, Inc., Ashland, Oreg.).
The following experiment was performed to test if p38, an upstream component of p53 signaling, is required for the centrosomal cell cycle arrest phenotype described herein. The following inhibitors were added to RPE1 cells 1 hour prior to siRNA treatment at the indicated concentrations: SB203580 (p38 inhibitor) 40 μM, SB202190 (p38 inhibitor) 10 μM, and PD98059 (MAPK inhibitor) 50 μM. All inhibitors were obtained from Calbiochem and dissolved in DMSO. siRNA treatment and FACS analysis was performed as described in Example 2.

[2] = tested on: RPE cells; assay: Flow cytometry (FACS) of nocodazole-induced shift from G1 to G2/M peak after siRNA treatment; details: siRNA 50-70 hours, nocodazole 5 μg/mL 12 hours; FIG. 3A, FIG. 8
Procedure: as §1
In another approach to evaluating the effect requirement for centrosomal gene products, fluorescence assisted cell sorting (flow cytometry or FACS) analysis was performed as described in Gromley et al., J. Cell Biol., 161:535-545 (2003). Briefly, cells were treated with indicated siRNA for at least 50-70 hours, unless otherwise indicated. Cells were synchronized by adding nocodazole to 5 μg/mL for 12 hours prior to cell collection. Cells were collected, fixed in methanol, stained with propidium iodide, and analyzed by flow cytometry (FACSCAN®;Becton Dickinson) using FLOJO® software (Tree Star, Inc.).
FIG. 3A is a graph showing the effects of depleting the indicated centrosomal gene products by siRNA treatment. The left side of the graph depicts the FACS results for treated cells before the addition of nocodazole (-noc). The major fluorescence peak in (-noc) cells is the G1 peak, (i.e., lower DNA fluorescence). The right side of the graph depicts the results for cells after nocodazole treatment (+noc). […] This may be due to inefficient silencing caused by the siRNAs used.
The ability of a number of centrosomal genes to inhibit cell cycling of RPE1 cells was tested by treating cells with siRNAs and performing FACS analysis as described in Example 2.

[3] = tested on: RPE cells; assay: BrDU incorporation after siRNA treatment and nocodazole synchronization; details: relative to control cells (siRNA to lamin), after nocodazole release; FIG. 2A
Procedure: To further study the effects of silencing centrosomal genes, the following cell cycle experiments were performed using RPE cells. In immunofluorescence experiments, cells were delivered by OLIGOFECTAMINE in a media solution containing between 1-100 nanomolar concentration of siRNAs. After 4 hours of incubation with lipofectamine, cells were washed, and cell cycle progression was assayed by (i) treating cells with 5-Bromo-2′-deoxyuridine (BrDU from Sigma, St Louis, Mo.) for 24 hours and staining for BrDU or (ii) staining cells with antibody to Ki-67 (BD Biosciences) according to manufacturer's instructions. BrDU treatment and staining were performed as follows: after 50-70 hours incubation with siRNA, BrDU was added to cells at a final concentration of 5 μg/ml. Cells were fixed in −20° C. methanol and then treated with 2N HCL at 22° C. for 30 minutes, incubated with 1:500 mouse anti-BrdU antibody (Becton Dickinson, Palo Alto, Calif.), and labeled with 1:1,000 goat FITC-mouse antibody (Molecular Probes, Inc.). Cells were also treated with 4′,6-diamidino-2-phenylindole (DAPI) (Molecular Probes) according to the manufacturer's instructions. Cells were prepared, imaged, and the resulting images were deconvolved as described in Example 1.
Upon release from nocodazole treatment, proliferating cells typically resume cell cycle progression. Chromosomal DNA in the cells was imaged using DAPI (faint ghost-like staining) and/or BrDU (brighter staining). Although DAPI can be used to visualize DNA at any stage of the cell cycle, BrDU is only incorporated into newly synthesized DNA only during S-phase. Thus, BrDU incorporation can be used as a marker of cells that progress through at least one S-phase of the cell cycle. Control cells in this experiment were treated with siRNA to lamin.

[4] = tested on: RPE cells; assay: CFDA-SE labeling cell division assay; details: during the 72 hours following siRNA treatment; FIG. 4
Description: RPE cells were transfected with siRNA directed to pericentrin A/B or lamin (control) as described in Example 2. Immediately prior to siRNA transfection cells were labeled with a succinimidyl ester of carboxyfluorescein diacetate (CFDA-SE from Molecular Probes, Eugene, Oreg.) according to manufacturers instructions. CFDA-SE is a fluorescent marker that spontaneously and irreversibly couples to free amines on intracellular and cell-surface proteins. When a cells divides, CFDA-SE labeling is inherited equally by daughter cells, which are therefore half as fluorescent as the parent cell. Cells were prepared for and analyzed by fluorescence microscopy as described in Example 1.

[5] = tested on: cdc14A; assay: Anti-cdc14A immunofluorescence intensity in siRNA-treated cells; details: 25 cells; FIG. 1C
Procedure: To test the ability of siRNAs to silence centrosomal gene products, cells were treated with siRNAs for 24 hours. Cells were diploid, telomerase-immortalized human retinal pigment epithelial (RPE1) cells (hTERT-RPE1s from Clontech, Palo Alto, Calif.) (see Morales et al., Nat Genet, 21:115-118, 1999). siRNAs directed to δ-tubulin (SEQ ID NO:2), γ-tubulin (SEQ ID NO:4), GCP2 (SEQ ID NO:5), GCP3(SEQ ID NO:6), cNAP1 (SEQ ID NO:8), PCM1 (SEQ ID NO:9), ninein (SEQ ID NO:21), NEK2a (SEQ ID NO:10), centrin2 (SEQ ID NO:12), CDC14A (SEQ ID NO:13), gapcena (SEQ ID NO:15), nemo (SEQ ID NO:16), pericentrin (SEQ ID NO:23), lamin A/C (CUGGACUUCCAGAAGAACA, SEQ ID NO: 24) zyxin (UGUGGCUGUCAACGAACUC, SEQ ID NO:25), and p53 (GGACAAGGGUUGGGCUGGG, SEQ ID NO:26) were made as complementary single stranded 19-mer siRNAs with 3′ dTdT overhangs (Dharmacon Inc., Lafayette, Colo.), deprotected, annealed and delivered into cells using OLIGOFECTAMINE® from Invitrogen (Carlsbad, Calif.). Nucleotides were delivered in media containing up to 100 nanomolar concentrations of siRNAs. […]
FIG. 1C is a histogram quantifying anti-cdc14A immunofluorescence observed in 25 cells treated with (i) siRNA to CDC14 (siCDC14) or (ii) control siLamin.

[6] = tested on: δ-tubulin; assay: Immunofluorescence of centrosomal δ-tubulin after siRNA treatment; details: vs lamin control; FIG. 1D
Procedure: To test the ability of siRNAs to silence centrosomal gene products, cells were treated with siRNAs for 24 hours. Cells were diploid, telomerase-immortalized human retinal pigment epithelial (RPE1) cells (hTERT-RPE1s from Clontech, Palo Alto, Calif.) (see Morales et al., Nat Genet, 21:115-118, 1999). siRNAs directed to δ-tubulin (SEQ ID NO:2), γ-tubulin (SEQ ID NO:4), GCP2 (SEQ ID NO:5), GCP3(SEQ ID NO:6), cNAP1 (SEQ ID NO:8), PCM1 (SEQ ID NO:9), ninein (SEQ ID NO:21), NEK2a (SEQ ID NO:10), centrin2 (SEQ ID NO:12), CDC14A (SEQ ID NO:13), gapcena (SEQ ID NO:15), nemo (SEQ ID NO:16), pericentrin (SEQ ID NO:23), lamin A/C (CUGGACUUCCAGAAGAACA, SEQ ID NO: 24) zyxin (UGUGGCUGUCAACGAACUC, SEQ ID NO:25), and p53 (GGACAAGGGUUGGGCUGGG, SEQ ID NO:26) were made as complementary single stranded 19-mer siRNAs with 3′ dTdT overhangs (Dharmacon Inc., Lafayette, Colo.), deprotected, annealed and delivered into cells using OLIGOFECTAMINE® from Invitrogen (Carlsbad, Calif.). Nucleotides were delivered in media containing up to 100 nanomolar concentrations of siRNAs.
Commercial antibodies to the following proteins were used in this study: lamin A/C (Cell Signaling Technology, Beverly, Mass.), δ-, ε-, or γ-tubulin (Sigma-Aldrich, St. Louis, Mo.), zyxin (Santa Cruz Biotechnology, Santa Cruz, Calif.), Nek2A (Zymed, South San Francisco, Calif.), p53 (Calbiochem, San Diego, Calif.). […]

Compound: COc1cccc(-c2cc(=O)c3ccccc3o2)c1N [map kinase inhibitor, PD98059]
- effect of inhibitor alone on nocodazole-induced shift from G1 to G2/M peak ([1]; SB203580 40 μM, SB202190 10 μM, PD98059 50 μM): did not inhibit the nocodazole-induced shift
- effect of inhibitor on siGCP3-induced cell cycle arrest ([1]; inhibitor added 1 hour prior to siGCP3, SB203580 40 μM, SB202190 10 μM, PD98059 50 μM): did not affect siGCP3's ability to cause cell cycle arrest

Compound: AAGAGAAGCAGAUGCUGCA (siRNA; RNA, 3' dTdT, backbone not given here) [siGCP3, siRNA directed to GCP3]
- inhibition of nocodazole-induced shift from G1 peak to G2/M peak [2]: prevented nocodazole-induced shift
- effect of siRNA on nocodazole-induced shift from G1 to G2/M peak ([1]; siRNA alone): inhibited this shift

Compound: ACUUCGCCUGGUCCAACUU (siRNA; RNA, 3' dTdT, backbone not given here) [GCP-5, siRNA directed to GCP5]
- inhibition of nocodazole-induced shift from G1 peak to G2/M peak [2]: prevented nocodazole-induced shift

Compound: AGGGAACCAAGGAAAGGCA (siRNA; RNA, 3' dTdT, backbone not given here) [NEK, siRNA directed to NEK2]
- inhibition of nocodazole-induced shift from G1 peak to G2/M peak [2]: did not cause a pronounced inhibition of the shift
- incorporation of BrDU into chromosomal material [3]: less pronounced

Compound: CUGGACUUCCAGAAGAACA (siRNA; RNA, 3' dTdT, backbone not given here) [lamin, control siRNA directed to lamin A/C, reference compound]
- cells that never divided [4]: ~7%

Compound: GAGCAAAAGCAGGAGAUCC (siRNA; RNA, 3' dTdT, backbone not given here) [centrin, siRNA directed to centrin2]
- incorporation of BrDU into chromosomal material [3]: clearly inhibited incorporation of BrDU

Compound: GCACAGUAAAUACCCACUA (siRNA; RNA, 3' dTdT, backbone not given here) [siCDC14, siRNA directed to CDC14A]
- cells displaying lower anti-cdc14A fluorescence intensity than the lowest control (siLamin treated) cell [5]: 68%

Compound: GCAGCUGAGCUGAAGGAGA (siRNA; RNA, 3' dTdT, backbone not given here) [pericentrin A/B, siRNA directed to both pericentrin A and pericentrin B]
- cells that never divided [4]: 40%

Compound: GGUUCUGGAAACAACUGGG (siRNA; RNA, 3' dTdT, backbone not given here) [siδ-tubulin, siRNA directed to δ-tubulin]
- centrosomal δ-tubulin staining [6]: reduced the number and/or fluorescence intensity of centrosomal staining

Compound: GUCCCCCAAACAGAGAAAC (siRNA; RNA, 3' dTdT, backbone not given here) [PCM-1, siRNA directed to PCM1]
- inhibition of nocodazole-induced shift from G1 peak to G2/M peak [2]: prevented nocodazole-induced shift

Compound: UAUGAGCAUUGAGGCAGAG (siRNA; RNA, 3' dTdT, backbone not given here) [ninein]
- inhibition of nocodazole-induced shift from G1 peak to G2/M peak [2]: did not cause a pronounced inhibition of the shift

Compound: UCUAUCCGAAAGCCCAGUC (siRNA; RNA, 3' dTdT, backbone not given here) [CNAP, siRNA directed to cNAP1]
- inhibition of nocodazole-induced shift from G1 peak to G2/M peak [2]: prevented nocodazole-induced shift
- incorporation of BrDU into chromosomal material [3]: clearly inhibited incorporation of BrDU

Source: patent US20050208058A1, “Compositions and methods for modulating cell division” (priority 2003, published 2005)
